Laboratory results as given in patent publication US6777229B1, “Plasmids from Corynebacterium glutamicum and use thereof” (Degussa AG, priority 1999, dated 2004).

What was measured:
Assay in all cases: Minimum inhibition concentration, NCCLS Approved Standard M7-A4 dilution test
Type in all cases: cell-based
[1] = system: Corynebacterium glutamicum ATCC13032 [pTET3]; details: strain ATCC13032 [pTET3]
Source text: In order to identify antibiotic resistance genes on new plasmids, the strain to be investigated, in the present case Corynebacterium glutamicum LP-6, and a sensitive control strain, in the present case Corynebacterium glutamicum ATCC13032, are initially tested for resistance or sensitivity to various antibiotics and concentrations of antibiotics. The National Committee of Clinical Laboratory Standards (NCCLS) experimental procedure is preferably used for this purpose (“Methods for dilution antimicrobial susceptibility tests for bacteria that grow aerobically”, fourth edition; Approved Standard, M7-A4, NCCLS 17(2), (1997)). Using the method of “Approved Standard M7-A4”, it is possible to determine inhibition concentrations and thus to ascertain the resistance of the investigated strain of bacteria.
The plasmid to be investigated, in the present case pTET3, is then isolated from strain LP-6 as described above and used to transform a suitable control or indicator strain, in the present case strain ATCC13032. Methods for transforming coryneform bacteria are described, for example, in Thierbach et al. ([…] 29, 356-362 (1988)), in Liebl et al. (FEMS Microbiology Letters 65, 299-304 (1989)) or in Dunican et al. (Bio/Technology 7, 1067-1070 (1989)). Selection is performed on conventional, complex nutrient media, such as for example brain-heart bouillon or Luria-Bertani medium, which are supplemented with the appropriate antibiotics. The antibiotic and the concentration thereof for this selection process is determined on the basis of the above-mentioned “Approved Standard, M7-A4”. In this manner, strain ATCC13032[pTET3], is obtained by selection for tetracycline resistance. The resistance/sensitivity of strain ATCC13032[pTET3) and of the control strain ATCC13032 is then investigated using the above-mentioned method, yielding the result that strain ATCC13032[pTET3] is resistant to the antibiotics tetracycline, streptomycin, spectinomycin and sulfamethoxazole.
In order to identify antibiotic resistance regions on the novel plasmids pTET3 or pCRY4, the resistant test strain Corynebacterium glutamicum LP-6 and the sensitive control strain Corynebacterium glutamicum ATCC13032 were initially cultured in the presence and absence of various antibiotics and antibiotic concentrations in accordance with the experimental method of the National Committee of Clinical Laboratory Standards (National Committee of Clinical Laboratory Standards, Methods for dilution antimicrobial susceptibility tests for bacteria that grow aerobically; Approved Standard, M7-A4 (1997)). […]

[2] = system: Corynebacterium glutamicum ATCC13032; details: strain ATCC13032 (sensitive control), MÜLLER-HINTON bouillon
Source text: (§1) In order to identify antibiotic resistance genes on new plasmids, the strain to be investigated, in the present case Corynebacterium glutamicum LP-6, and a sensitive control strain, in the present case Corynebacterium glutamicum ATCC13032, are initially tested for resistance or sensitivity to various antibiotics and concentrations of antibiotics. […] Using the method of “Approved Standard M7-A4”, it is possible to determine inhibition concentrations and thus to ascertain the resistance of the investigated strain of bacteria.
(§2) In order to identify antibiotic resistance regions on the novel plasmids pTET3 or pCRY4, the resistant test strain Corynebacterium glutamicum LP-6 and the sensitive control strain Corynebacterium glutamicum ATCC13032 were initially cultured in the presence and absence of various antibiotics and antibiotic concentrations in accordance with the experimental method of the National Committee of Clinical Laboratory Standards (National Committee of Clinical Laboratory Standards, Methods for dilution antimicrobial susceptibility tests for bacteria that grow aerobically; Approved Standard, M7-A4 (1997)). The antibiotics required for this test, inter alia the antibiotics tetracycline, spectinomycin, streptomycin and sulfamethoxazole, were obtained from Sigma-Aldrich Chemie GmbH (Deisenhofen, Germany) and used in the concentrations stated in “Approved Standard M7-A4”. The nutrient medium required for this test, “MÖLLER-HINTON bouillon” was obtained from Merck KGaA (Darmstadt, Germany) and used in accordance with the manufacturer's instructions. Using the method of “Approved Standard M7-A4”, it is possible to determine inhibition concentrations (Table 1) and to identify the resistance of the bacterial strain Corynebacterium glutamicum LP-6 to the antibiotics tetracycline, spectinomycin, streptomycin and sulfamethoxazole. Plasmid DNA isolated from Corynebacterium glutamicum LP-6 using an alkaline lysis method (“NucleoBond Nucleic Acid Purification Kits and Cartridges User Manual (PT3167-1)”, Clonetech Laboratories GmbH, Heidelberg, Germany, 1997) was then transferred with electrical assistance into Corynebacterium glutamicum ATCC13032. Selection was performed directly for the presence of the identified tetracycline resistance in the primary selection on LB agar containing 5 μg/ml of tetracycline. […] The transformed strain was named Corynebacterium glutamicum ATCC13032 [pTET3].

[3] = system: Corynebacterium glutamicum LP-6; details: strain LP-6 (resistant test strain)
Source text: as §1, §2

| SMILES | Minimum inhibition concentration [1] | Minimum inhibition concentration [2] | Minimum inhibition concentration [3] |
| --- | --- | --- | --- |
| CN[C@@H]1[C@H](O)[C@H](NC)[C@H]2O[C@@]3(O)C(=O)C[C@@H](C)O[C@H]3O[C@@H]2[C@H]1O [Spectinomycin] | >2000 μg of antibiotic per ml | ≦50 μg of antibiotic per ml | >2000 μg of antibiotic per ml |
| Cc1cc(NS(=O)(=O)c2ccc(N)cc2)no1 [Sulfamethoxazole] | ≦300 μg of antibiotic per ml | ≦150 μg of antibiotic per ml | ≦300 μg of antibiotic per ml |
| CN(C)[C@@H]1C(O)=C(C(N)=O)C(=O)[C@@]2(O)C(O)=C3C(=O)c4c(O)cccc4[C@@](C)(O)[C@H]3C[C@@H]12 [Tetracycline] | ≦12 μg of antibiotic per ml | ≦0.75 μg of antibiotic per ml | ≦12 μg of antibiotic per ml |
| [H]/N=C(/N)N[C@H]1[C@H](O)[C@@H](O)[C@H](O[C@@H]2O[C@@H](C)[C@](O)(C=O)[C@H]2O[C@@H]2O[C@@H](CO)[C@H](O)[C@@H](O)[C@@H]2NC)[C@@H](N/C(N)=N\[H])[C@@H]1O [Streptotmycin] | ≦100 μg of antibiotic per ml | ≦0.5 μg of antibiotic per ml | ≦100 μg of antibiotic per ml |
